Assay results published in patent US9428753B2, “Use of LXR antagonists for treatment of side effects of elevated glucocorticoid levels” (The Governing Council of the University of Toronto, priority 2013, dated 2016).
Entries after “also recorded” stand apart in the source; their conditions may differ.

What was measured:
Format in all cases: cell-based
LXRβ = biological target: T1, LXRβ (Homo sapiens, UniProt P55055); test: GAL4-LXRβ / UAS-luc co-transfection reporter assay in HEK293 cells; set-up: co-transfecting UAS-reporter and GAL4-LBD of the nuclear receptors LXRα, LXRβ and GR; GAL4 (fusion partner); expressed in transfected cells; host or cells: HEK293 cells; mouse primary hepatocytes
T1 sequence (P55055 222-460 limits assumed): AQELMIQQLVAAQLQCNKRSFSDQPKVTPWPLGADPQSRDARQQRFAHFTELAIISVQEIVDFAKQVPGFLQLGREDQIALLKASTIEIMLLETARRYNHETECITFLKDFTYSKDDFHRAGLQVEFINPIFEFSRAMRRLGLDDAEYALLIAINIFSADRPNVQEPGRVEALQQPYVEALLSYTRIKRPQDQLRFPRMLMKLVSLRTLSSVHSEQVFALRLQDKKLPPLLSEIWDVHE
Description: (§1) RLU=relative luciferase units.
as §1
(§2) Further experiments were then carried out to determine the inhibitory potencies for the individual LXR isoforms in HEK 293 cells by co-transfecting UAS-reporter and GAL4-LBD of the nuclear receptors LXRα, LXRβ and GR and then treating with 8 different concentrations of GSK2033. To assess suppression of ligand activated receptors, the transfected cells were co-treated with increasing doses of GSK2033, in addition to T09091317 or Dex (dexamethasone) (at EC80 of LXR isoforms and GR, respectively).
A number of experiments were carried out to determine the relative inhibitory potencies of GSK2033, Amgen 54 and DMHCl for the individual LXR isoforms in HEK 293 cells by co-transfecting UAS-reporter and GAL4-LBD of the nuclear receptors LXRα, LXRβ and GR and then treating with 6 different concentrations of GSK2033, Amgen 54 and DMHCl.

[1] = tested on: mouse primary hepatocytes; test: Glucose production (glucose output) in mouse primary hepatocytes
Description: T09 treatment was used as a positive control for LXR activity. (D) Glucose output over 24 hrs from LXRα−/− and LXRβ−/− mouse primary hepatocytes following Dex 100 nM±10 μM GSK2033 treatment. (E) Glucose output over 8 hrs from WT hepatocytes following Dex 500 nM±10 μM GSK2033 treatments. Data represent the Avg±SD, N=3. *P<0.05 by One way ANOVA, Student Newman Keuls. Legend: V=vehicle, G=GSK2033 (LXR antagonist); D=dexamethasone (GR agonist); and T09=T0901317 (LXR agonist).
While not wishing to be limited by theory, subsequent to conducting these initial studies it was realized that 24 hour incubation of hepatocytes in gluconeogenic media may be too long. In the literature, for this type of assay, primary heptocytes are usually incubated up to 12 hours. As such, for subsequent studies of the present application, WT cells were treated with 500 nM Dex for 8 hours to be able to measure detectable levels of glucose in the media.

Pepck = Pepck gene expression in mouse primary hepatocytes
IL-1β = IL-1β gene expression in LPS activated mouse primary macrophages (RT-QPCR)
Description: The expression of genes involved in immune response IL-1β, IL-6 and GILZ was measured following an overnight treatment with Dex 100 nM, 250 nM T0901317 (T09), and/or 10 μM GSK2033 in LPS activated WT, LXR α −/− and LXRβ −/− mouse primary macrophages, by RT-QPCR. Data represent the Avg±SD, N=3. *P<0.05 by One way ANOVA, Student Newman Keuls.
To assess the ability of GSK2033 to affect GR-mediated inflammatory suppression, a number of gene expression studies were conducted on primary macrophages isolated from WT, LXRα−/− and LXRβ−/− mice. Cells were pre-treated with 10 ng/ml lipopolysaccharide (LPS) for 6 hrs (to induce a potent inflammatory response) followed by treatment of 100 nM Dex, 10 μM GSK2033 and/or 250 nM T09 for 18 hrs.

GR [2] = biological target: T2, GR (Homo sapiens, UniProt P04150); test: GAL4-GR / UAS-luc co-transfection reporter assay in HEK293 cells; set-up: co-transfecting UAS-reporter and GAL4-LBD of the nuclear receptors LXRα, LXRβ and GR; GAL4 (fusion partner); expressed in transfected cells; host or cells: HEK293 cells; mouse primary hepatocytes
T2 sequence (P04150 524-758 limits assumed): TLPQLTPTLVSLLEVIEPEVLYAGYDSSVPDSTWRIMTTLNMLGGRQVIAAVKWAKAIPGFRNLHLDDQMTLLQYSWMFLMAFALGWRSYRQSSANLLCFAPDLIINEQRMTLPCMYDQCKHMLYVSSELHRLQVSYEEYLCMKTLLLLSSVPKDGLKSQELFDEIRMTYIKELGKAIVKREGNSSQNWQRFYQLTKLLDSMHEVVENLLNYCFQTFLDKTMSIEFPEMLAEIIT
Description: as §1, §1, §2
A number of experiments were carried out to determine the relative inhibitory potencies of GSK2033, Amgen 54 and DMHCl for the individual LXR isoforms in HEK 293 cells by co-transfecting UAS-reporter and GAL4-LBD of the nuclear receptors LXRα, LXRβ and GR and then treating with 6 different concentrations of GSK2033, Amgen 54 and DMHCl. To assess suppression of ligand activated receptors, the transfected cells were co-treated with increasing doses of GSK2033, Amgen 54 and DMHCl, in addition to T09091317 or Dex (at EC80 of LXR isoforms and GR, respectively).

GR [3] = biological target: T2, GR; test: GAL4-GR / UAS-luc transfection assay in mouse primary hepatocytes; set-up: co-transfecting UAS-reporter and GAL4-LBD of the nuclear receptors LXRα, LXRβ and GR; GAL4 (fusion partner); expressed in transfected cells; host or cells: mouse primary hepatocytes; details: GAL4-GR activated with 100 nM Dex
Source text: as §1

Cc1cc(C)c(S(=O)(=O)N(Cc2ccc(-c3cccc(S(C)(=O)=O)c3)cc2)Cc2ccc(C(F)(F)F)o2)c(C)c1 [GSK2033, 2,4,6-trimethyl-N-((3′-(methylsulfonyl)-[1,1′-biphenyl]-4-yl)methyl)-N-((5-(trifluoromethyl)furan-2-yl)methyl)benzenesulfonamide]
IC50 (LXRβ; IC50 against LXRβ, Example 1, T0901317 at EC80 (100 nM), 8 concentrations): 37 nM | IC50 (LXRβ; IC50 to inhibit LXRβ, Example 7, T0901317 100 nM, 6 concentrations): 6.44 nM | basal repression of LXRβ (LXRβ; preliminary experiment, 3 doses): basal repression | glucose secretion (glucose output) ([1]; LXRα−/− hepatocytes, 100 nM Dex + 10 μM GSK2033, 24 hours): 1.2 fold | glucose secretion (glucose output) ([1]; WT hepatocytes, 500 nM Dex + 10 μM GSK2033, 8 hours): 1.25 fold | Pepck expression (Pepck; Example 3, LXRα−/− hepatocytes, 100 nM Dex + 10 μM GSK2033): 3.2 fold | Pepck expression (Pepck; Example 3, LXRβ−/− hepatocytes, 100 nM Dex + 10 μM GSK2033): remained unchanged | Pepck expression (Pepck; Example 3, WT hepatocytes, 100 nM Dex + 10 μM GSK2033): 1.9 fold | Pepck expression (Pepck; Example 6, LXRα−/− hepatocytes, 100 nM Dex + 10 μM GSK2033): 0.8 fold | Pepck expression (Pepck; Example 6, LXRα−/− hepatocytes, 10 μM Cortisol + 10 μM GSK2033): 1.7 fold | Pepck expression (Pepck; Example 6, LXRα−/− hepatocytes, 10 μM Prednisone + 10 μM GSK2033): 1.24 fold | Pepck expression (Pepck; Example 6, LXRα−/− hepatocytes, 10 μM Triamcinolone acetonide + 10 μM GSK2033): 0.6 fold | Pepck expression (Pepck; Example 8, LXRα−/− hepatocytes, 100 nM Dex + 10 μM LXR antagonist): 2.7 fold | T09 mediated suppression of IL-1β under GSK2033 co-treatment (IL-1β; LPS activated macrophages, 250 nM T09 + 10 μM GSK2033): antagonized | Dex-mediated IL-1β repression under GSK2033 co-treatment (IL-1β; WT, LXRα−/− and LXRβ−/− macrophages, LPS 10 ng/ml 6 hrs, 100 nM Dex + 10 μM GSK2033, 18 hrs): unaffected | Dex induced GR activity (GR [2]; Example 1, GAL4-GR activated with 100 nM Dex): unaffected; also recorded: did not antagonize | Dex induced GR activity (GR [2]; Example 7, 100 nM Dex): unaffected; also recorded: did not antagonize | GR activity (GR [3]): unaffected; also recorded: did not antagonize
